The source of these data is patent publication US9663764B2, “Generation of cardiomyocytes from human pluripotent stem cells” (Wisconsin Alumni Research Foundation, priority 2011, dated 2017).

What all share (format): cell-based, human
One assay deals with 19-9-11 ishcat-2 cells. The assay is described as follows: cTnT+ cell generation with Activin A and BMP4 signaling antagonists during CH induction. As to conditions: dox at 48 hours. On the procedure: (§1) cardiac directed differentiation via small molecules: Cells were dissociated and plated as described in the Activin/BMP4 protocol. When hPS cells maintained on Matrigel® or Synthemax plates achieved confluence, cells were treated with CH in RPMI/B27-insulin for 24 hr (day 0 to day 1). The medium was changed to RPMI/B27-insulin, followed by 2 μg/ml dox treatment at different times between day 1 and day 5 for transgenic cell lines. For genetically unmodified lines, 5 μM IWP2 (Tocris) or IWP4 (Stemgent) was added at day 3 and removed during the day 5 medium change. Cells were maintained in the RPMI/B27 starting from day 7, with the medium changed every 3 days.
Flow Cytometry: Cells were dissociated into single cells and then fixed with 1% paraformaldehyde for 20 min at room temperature and stained with primary and secondary antibodies in PBS plus 0.1% Triton X-100 and 0.5% BSA. […] Data were collected on a FACSCaliber flow cytometer (Beckton Dickinson) and analyzed using FlowJo.
To determine whether canonical Wnt signaling requires TGFβ superfamily signaling to induce cardiogenesis, the inventors quantified cTnT+ cell generation in 19-9-11 ishcat-2 cells when Activin A and BMP4 signaling antagonists were presented during the first 24 hr of cardiomyocyte induction with 12 μM CH. […]

The subject of assay [1] is Smad1/5 and Smad2 phosphorylation in 19-9-11 ishcat cells. The assay is described as follows: Smad1/5 and Smad2 phosphorylation, western blot. The settings on record: for Smad1/5 and Smad2 phosphorylation: 100 ng/ml Activin A at day 0 and 5 ng/ml BMP4 at day 1. The method, then:
Western Blot Analysis: Cells were lysed in M-PER Mammalian Protein Extraction Reagent (Pierce) in the presence of Halt Protease and Phosphatase Inhibitor Cocktail (Pierce). Proteins were separated by 10% Tris-Glycine SDS/PAGE (Invitrogen) under denaturing conditions and transferred to a nitrocellulose membrane. After blocking with 5% milk in TBST, the membrane was incubated with primary antibody overnight at 4° C. The membrane was then washed, incubated with an anti-mouse/rabbit peroxidase-conjugated secondary antibody (1:1000, Cell Signaling) at room temperature for 1 hr, and developed by SuperSignal chemiluminescence (Pierce).
To determine whether canonical Wnt signaling requires TGFβ superfamily signaling to induce cardiogenesis, the inventors quantified cTnT+ cell generation in 19-9-11 ishcat-2 cells when Activin A and BMP4 signaling antagonists were presented during the first 24 hr of cardiomyocyte induction with 12 μM CH. All samples were treated with dox at 48 hours. […] To further investigate the role of TGFβ superfamily signaling in Wnt pathway-mediated cardiogenesis the inventors assessed Smad1/5 and Smad2 phosphorylation, downstream of BMP4 and Activin A signaling respectively. As expected, substantial Smad1/5 and Smad2 phosphorylation was detected in cells that had been treated with Activin A and BMP4 (FIGS. 9B and 10A).

The test system of the next assay is H9 hESCs. The assay is described as follows: Activin A/BMP4 directed cardiac differentiation with GSK3 inhibitor pretreatment, cTnT flow cytometry. As to conditions: for contracting cardiomyocytes generated: Activin A and BMP4 protocol without GSK3 inhibitor, H9 cells. On the procedure: (§2) Cardiac directed differentiation using Activin A and BMP4: hPS cells maintained on Matrigel® in mTeSR1 were dissociated into single cells with Accutase (Invitrogen) at 37° C. for 5 min and then seeded onto a Matrigel®-coated cell culture dish at 100,000 cell/cm^2 in mTeSR1 supplemented with 5 μM ROCK inhibitor (Y-27632, Stemgent) (day −5). Cells were cultured in mTeSR1, changed daily. At day 0, cells were treated with 100 ng/ml Activin A (R&D) in RPMI/B27-insulin. After 24 hr, the medium was changed to RPMI/B27-insulin supplemented with 5 ng/ml BMP4 (R&D) for another 4 days. At day 5, the medium was changed with RPMI/B27-insulin. At day 7 the cells were transferred to RPMI/B27, and medim changed every 3 days. When using GSK3 inhibitors to stimulate differentiation, cells were cultured in mTeSR1 containing BIO or CHIR99021 from day −3 to day 0.
(§3) Flow Cytometry: Cells were dissociated into single cells and then fixed with 1% paraformaldehyde for 20 min at room temperature and stained with primary and secondary antibodies in PBS plus 0.1% Triton X-100 and 0.5% BSA. For the cell proliferation assay, a 17-hour pulse of BrdU was performed to identify dividing cardiomyocytes (Zhang et al., Circ. Res. 104, e30-41 (2009)). Data were collected on a FACSCaliber flow cytometer (Beckton Dickinson) and analyzed using FlowJo.
Undifferentiated H9 hESCs were cultured in the presence of 0-8 μM CH for three days prior to EB formation. EBs were cultured in suspension for 4 days before transferring to 0.1% gelatin coated plates. […] The inventors also applied the GSK3 inhibitors CH and BIO to undifferentiated H9 hESCs three days prior to directed differentiation to cardiomyocytes via Activin A and BMP4.
On the technique in general: A flow cytometer gives signals particle by particle.

The test system of another assay is IMR90C4 iPSC line. The assay is described as follows: Activin A/BMP4 directed cardiac differentiation with BIO pretreatment, cTnT flow cytometry. The settings on record: three days of BIO pretreatment prior to Activin A and BMP4; day 15. On the procedure:
as §2
Flow Cytometry: Cells were dissociated into single cells and then fixed with 1% paraformaldehyde for 20 min at room temperature and stained with primary and secondary antibodies in PBS plus 0.1% Triton X-100 and 0.5% BSA. For the cell proliferation assay, a 17-hour pulse of BrdU was performed to identify dividing cardiomyocytes (Zhang et al., Circ. Res. 104, e30-41 (2009)). Data were collected on a FACSCaliber flow cytometer (Beckton Dickinson) and analyzed using FlowJo. […]

Assay [2] relates to 19-9-11 and IMR90C4 iPSCs. The assay is described as follows: Cardiac directed differentiation via small molecules on Synthemax plates, cTnT/MF20 flow cytometry. The settings on record: 12 μM CH at day 0 and 5 μM IWP4 at day 3, day 15. On the procedure: as §1, §3
While shRNA inhibition of β-catenin provides specific and facile temporal regulation of canonical Wnt signaling, this method requires genetic modification of the hPS cell line which limits its potential clinical utility. […]

For a further assay, the system named is 19-9-11 iPSCs. The assay is described as follows: Cardiac directed differentiation via small molecules on Matrigel, cTnT/MF20 flow cytometry. The settings on record: for cTNT+ or MF20+ cells: 12 μM CH at day 0, then 5 μM Wnt inhibitor at day 3, after 15 days. The method, then: as §1, §3
While shRNA inhibition of β-catenin provides specific and facile temporal regulation of canonical Wnt signaling, this method requires genetic modification of the hPS cell line which limits its potential clinical utility. The inventors next used the mechanistic insight these modified lines provided regarding the sufficiency of canonical Wnt signaling in cardiomyogenesis to develop a completely defined, growth factor free method of efficiently generating cardiomyocytes from unmodified hPS cell lines using small molecules. First, 19-9-11 iPSCs were maintained in mTeSR1 on Matrigel® for five days, and then the medium was switched to RPMI/B27-insulin containing 12 μM CH. IWP4 and IWP2, which prevent palmitylation of Wnt proteins by porcupine thereby blocking Wnt protein secretion and activity (Chen et al., Nat. Chem. Biol. 5:100-107 (2009)), were used to inhibit Wnt signaling. […] Similar to results obtained with the 19-9-11 ishcat-1 cell line, CH treatment of 19-9-11 cells alone only generated 16% cTNT+ or MF20+ cells after 15 days, while adding 5 μM IWP4 or IWP2 at day 3 increased this to 87% cTNT+ or MF20+ cells. […] In order to achieve fully defined culture conditions, Matrigel® was replaced with a defined peptide acrylate surface (Synthemax) during both hPS cell expansion and differentiation. […] Thus, optimization of canonical WNT signaling via stage-specific addition of small molecule agonists and antagonists produces high yields of functional cardiomyocytes in a completely defined, growth factor free culture system.

With `CC(C)Oc1ccc(-c2cnc3c(-c4ccnc5ccccc45)cnn3c2)cc1` [DMH1], in the assay with 19-9-11 ishcat-2 cells (0.2-1 μM DMH1 with 12 μM CH for first 24 hr, day 15), the “percentage of cTnT+ cells” value was “decreased the percentage of cTnT+ cells in a concentration-dependent manner”. In addition, the Smad1/5 phosphorylation result in assay [1] (12 μM CH plus DMH1) is recorded as “strongly attenuated”.
On to `O=C1Nc2cc(Br)ccc2/C1=C1/Nc2ccccc2/C1=N\O` [BIO], for which the cTNT-labeled cells with H9 hESCs (GSK3 inhibitor (1 μM) 3 days prior to Activin A and BMP4, day 15, average) amounted to 50%. Besides, the “generation of cTNT-expressing cells” value in the assay on IMR90C4 iPSC line was “enhanced generation of cTNT-expressing cells in the IMR90C4 iPSC line in a dose-dependent manner”.
Turning to `NC(=O)c1ccc(-c2nc(-c3ccc4c(c3)OCO4)c(-c3ccccn3)[nH]2)cc1` [SB431542], the “concentrations that completely blocked cardiomyocyte specification” value with 19-9-11 ishcat-2 cells (with 12 μM CH for first 24 hr, cTnT+ at day 15) is “greater than 2 μM”. The Smad2 phosphorylation entry in assay [1] (12 μM CH plus SB431542) is on record as “diminished”.
Consider `COc1ccccc1-n1c(SCC(=O)Nc2nc3ccc(C)cc3s2)nc2c(c1=O)SCC2` [IWP4, 2-(3,4,6,7-tetrahydro-3-(2-methoxyphenyl)-4-oxothieno[3,2-d]pyrimidin-2-ylthio)-N-(6-methylbenzo[d]thiazol-2-yl)acetamide], for which the “cTNT+ or MF20+ cells” value in assay [2] is recorded as “approximately 85%”; in the assay on 19-9-11 iPSCs it was 87%. For the same molecule, the “IWP4 concentration giving optimal generation of cardiomyocytes” value in the assay with 19-9-11 iPSCs (12 μM CH at day 0, IWP4 added at day 3) was determined as 5 µM.
Regarding `Cc1ccc2nc(NC(=O)CSc3nc4c(c(=O)n3-c3ccccc3)SCC4)sc2c1` [IWP2, N-(6-Methyl-2-benzothiazolyl)-2-[(3,4,6,7-tetrahydro-4-oxo-3-phenylthieno[3,2-d]pyrimidin-2-yl)thio]-acetamide], in the assay with 19-9-11 iPSCs, the “cTNT+ or MF20+ cells” value is on record as 87%.

B1: Activin A: growth factor (R&D) used at 100 ng/ml for directed cardiac differentiation (protein, UniProt P08476 311-426, looked up)
Inhibin beta A chain: GLECDGKVNICCKKQFFVSFKDIGWNDWIIAPSGYHANYCEGECPSHIAGTSGSSLSFHSTVINHYRMRGHSPFANLKSCCVPTKLRPMSMLYYDDGQNIIKKDIQNMIVEECGCS
modifications: Inhibin beta A chain
notes: growth factor (R&D) used at 100 ng/ml for directed cardiac differentiation
On to B1, for which the contracting cardiomyocytes generated entry in the assay on H9 hESCs is recorded as “very few contracting cardiomyocytes”. Further, in assay [1], the “Smad1/5 and Smad2 phosphorylation” value is given as “substantial”.

B2: BMP4: growth factor (R&D) used at 5 ng/ml for directed cardiac differentiation (protein, UniProt P12644 293-408, looked up)
Bone morphogenetic protein 4: SPKHHSQRARKKNKNCRRHSLYVDFSDVGWNDWIVAPPGYQAFYCHGDCPFPLADHLNSTNHAIVQTLVNSVNSSIPKACCVPTELSAISMLYLDEYDKVVLKNYQEMVVEGCGCR
With B2, the contracting cardiomyocytes generated result in the assay on H9 hESCs was “very few contracting cardiomyocytes”. Also, the “Smad1/5 and Smad2 phosphorylation” value in assay [1] is recorded as “substantial”.
